Assay results taken from patent publication US6727076B2 (priority 1995, dated 2004).
“Also recorded” adds a separate entry of the source. Peptide text beside a SMILES is read from it.

Assays:
[1] = system: E. coli 287 (ATCC #11775); format: cell-based
T. harzianum DAOM 190830 = format: cell-based, Trichoderma harzianum
E. coli MG1655 [2] = format: cell-based
S. typhimurium pyrCΔ73 = format: cell-based, Salmonella typhimurium
E. coli MG1655 [3] = format: cell-based; remark: listed apart in the source
[4] = system: E. coli strain 14445 (MG1655 himA); format: cell-based
[5] = system: E. coli strain 13671 (O157:H? gur+); format: cell-based
[6] = system: E. coli strain 13675 (O157); format: cell-based
[7] = system: E. coli strain 13673 (O157); format: cell-based
[8] = system: E. coli strain 11547 (O157:H7); format: cell-based
[9] = system: E. coli strain 14443 (MG1655 (FB426)); format: cell-based
[10] = system: E. coli strain 14444 (MG1655 xylA); format: cell-based

Row | Compound | carbon source utilization result [1] | carbon source utilization result (T. harzianum DAOM 190830) | also measured
1 | O=C[C@H](O)[C@@H](O)[C@H](O[C@@H]1O[C@H](CO)[C@@H](O)[C@H](O)[C@H]1O)[C@H](O)CO [Cellobiose] | negative | positive | 
2 | O=C1CC[C@@H](C(=O)O)N1 [L-pyroglutamic acid] | positive/negative | positive | suitability as nitrogen source (growth, purple color) (E. coli MG1655 [2]): not suitable
3 | C[C@H](O)[C@@H](O)[C@@H](O)[C@H](O)C=O [L-fucose] | positive | positive | 
4 | Nc1nc2c(ncn2[C@@H]2O[C@H](CO)[C@@H](O)[C@H]2OP(=O)(O)O)c(=O)[nH]1 [guanosine 2′-monophosphate] |  |  | growth stimulation by supplement (well color) (S. typhimurium pyrCΔ73): turned weakly purple; suitability as phosphorus source (growth, purple color) (E. coli MG1655 [3]): positive
5 | CC(=O)N[C@H]1C(O)O[C@H](CO)[C@@H](O)[C@@H]1O (stereo partly drawn) [N-acetyl-D-glucosamine] | positive | positive | suitability as nitrogen source (growth, purple color) (E. coli MG1655 [2]): positive
6 | O=C[C@@H](O)[C@@H](O)[C@H](O)[C@H](O)CO [D-mannose] | positive | positive | 
7 | CCC(=O)O [Propionic acid] | positive |  | carbon source utilization, in words [4]: negative
8 | O=c1ccn([C@@H]2O[C@H](CO)[C@@H](OP(=O)(O)O)[C@H]2O)c(=O)[nH]1 [uridine 3′-monophosphate] |  |  | growth stimulation by supplement (well color) (S. typhimurium pyrCΔ73): turned purple; suitability as phosphorus source (growth, purple color) (E. coli MG1655 [3]): positive
9 | NC(=O)CCC(=O)O [succinamic acid] |  | positive | 
10 | O=c1ccn([C@@H]2O[C@H](CO)[C@@H](O)[C@H]2O)c(=O)[nH]1 [Uridine] | positive |  | growth stimulation by supplement (well color) (S. typhimurium pyrCΔ73): turned purple; suitability as nitrogen source (growth, purple color) (E. coli MG1655 [2]): not suitable
11 | O=C(O)CCC(=O)O [Succinic acid] | positive | positive | 
12 | NCCC[C@H](N)C(=O)O [L-ornithine] |  | positive | suitability as nitrogen source (growth, purple color) (E. coli MG1655 [2]): not suitable
13 | Nc1ccn([C@H]2C[C@H](O)[C@@H](CO)O2)c(=O)n1 [2-deoxycytidine] |  |  | growth stimulation by supplement (well color) (S. typhimurium pyrCΔ73): turned purple
14 | glycogen |  | positive | 
15 | CC(O)CC(=O)O (stereo not drawn) [β-hydroxybutyric acid] | negative | positive | 
16 | CCC(=O)C(=O)O [α-ketobutyric acid] | positive |  | carbon source utilization, in words [4]: negative
17 | Nc1ncnc2c1ncn2[C@@H]1O[C@H](COP(=O)(O)O)[C@@H](O)[C@H]1O [adenosine 5′-monophosphate] |  |  | growth stimulation by supplement (well color) (S. typhimurium pyrCΔ73): turned weakly purple; suitability as phosphorus source (growth, purple color) (E. coli MG1655 [3]): not suitable
18 | NCC(=O)N[C@@H](CCC(=O)O)C(=O)O [Glycyl-L-glutamic acid] (H-Gly-Glu-OH) | positive | positive | suitability as nitrogen source (growth, purple color) (E. coli MG1655 [2]): positive
19 | OCC(O)CO [Glycerol] | positive | positive | 
20 | O=C[C@H](O)[C@@H](O)[C@@H](O)[C@H](O)C(=O)O [D-galacturonic acid] | positive | positive | 
21 | Nc1cc[nH]c(=O)n1 [cytosine] |  |  | growth stimulation by supplement (well color) (S. typhimurium pyrCΔ73): turned purple; suitability as nitrogen source (growth, purple color) (E. coli MG1655 [2]): not suitable
22 | Nc1nc2c(ncn2[C@@H]2O[C@H](COP(=O)(O)O)[C@@H](O)[C@H]2O)c(=O)[nH]1 [guanosine 5′-monophosphate] |  |  | growth stimulation by supplement (well color) (S. typhimurium pyrCΔ73): turned weakly purple; suitability as phosphorus source (growth, purple color) (E. coli MG1655 [3]): positive
23 | NCCCC(=O)O [γ-aminobutyric acid] |  | positive | suitability as nitrogen source (growth, purple color) (E. coli MG1655 [2]): weak positive; also recorded: not suitable
24 | O=c1ccn([C@@H]2O[C@H](COP(=O)(O)O)[C@@H](O)[C@H]2O)c(=O)[nH]1 [uridine 5′-monophosphate] |  |  | growth stimulation by supplement (well color) (S. typhimurium pyrCΔ73): turned purple; suitability as phosphorus source (growth, purple color) (E. coli MG1655 [3]): positive
25 | dextrin | positive | positive | 
26 | Nc1ccn([C@@H]2O[C@H](CO)[C@@H](O)[C@H]2O)c(=O)n1 [cytidine] |  |  | growth stimulation by supplement (well color) (S. typhimurium pyrCΔ73): turned purple
27 | Nc1ncnc2c1ncn2[C@H]1C[C@H](O)[C@@H](CO)O1 [2′-deoxy-adenosine] |  |  | growth stimulation by supplement (well color) (S. typhimurium pyrCΔ73): turned weakly purple

Row | Compound | carbon source utilization result [1] | carbon source utilization result (T. harzianum DAOM 190830) | also measured
28 | Nc1ccn([C@@H]2O[C@H](COP(=O)(O)O)[C@@H](O)[C@H]2O)c(=O)n1 [cytidine 5′-monophosphate] |  |  | growth stimulation by supplement (well color) (S. typhimurium pyrCΔ73): turned purple; suitability as phosphorus source (growth, purple color) (E. coli MG1655 [3]): positive
29 | Nc1ccn([C@@H]2O[C@H](CO)[C@@H](O)[C@H]2OP(=O)(O)O)c(=O)n1 [cytidine 2′-monophosphate] |  |  | growth stimulation by supplement (well color) (S. typhimurium pyrCΔ73): turned purple; suitability as phosphorus source (growth, purple color) (E. coli MG1655 [3]): not suitable
30 | O=C(O)CO [Glycolic acid] |  |  | carbon source utilization, in words [4]: negative
31 | Nc1nc2c(ncn2[C@H]2C[C@H](O)[C@@H](CO)O2)c(=O)[nH]1 [2′deoxyguanosine] |  |  | growth stimulation by supplement (well color) (S. typhimurium pyrCΔ73): turned weakly purple
32 | OC[C@@H](O)[C@@H](O)[C@H](O)[C@H](O)CO [D-mannitol] | positive | positive | 
33 | O=C(CO)[C@@H](O)[C@H](O)[C@H](O)CO [D-fructose] | positive | positive | 
34 | O=C(O)CC(Br)C(=O)O (centres unmarked) [Bromo succinic acid] | positive | positive | 
35 | O=C[C@H](O)[C@@H](O)[C@@H](O)[C@H](O)CO [D-galactose] | positive | positive | 
36 | OC[C@@H](O)C(O)[C@H](O)CO [D-arabitol] | negative | positive | 
37 | CCC(O)C(=O)O (stereo not drawn) [α-hydroxy butyric acid] |  |  | carbon source utilization, in words [4]: negative
38 | O=C(O)CC(O)(CC(=O)O)C(=O)O [Citric acid] | negative | positive | 
39 | N[C@@H](Cc1ccccc1)C(=O)O [L-phenylalanine] | positive/negative | positive | suitability as nitrogen source (growth, purple color) (E. coli MG1655 [2]): not suitable
40 | O=C(O)CCC(=O)C(=O)O [α-ketoglutaric acid] |  | positive | 
41 | OC[C@@H](O)[C@@H](O)[C@H](O)[C@@H](O)CO [D-sorbitol] | positive | positive | carbon source utilization, in words [5]: negative; carbon source utilization, in words [6]: negative; carbon source utilization, in words [7]: negative; carbon source utilization, in words [8]: negative
42 | COC(=O)C(C)=O [Methyl pyruvate] | positive | positive | 
43 | O=C[C@H](O)[C@@H](O)[C@@H](O)CO [L-arabinose] | positive | positive | 
44 | O=c1ccn([C@H]2C[C@H](O)[C@@H](CO)O2)c(=O)[nH]1 [2-deoxyuridine] |  |  | growth stimulation by supplement (well color) (S. typhimurium pyrCΔ73): turned purple
45 | Nc1nc2nc[nH]c2c(=O)[nH]1 [guanine] |  |  | growth stimulation by supplement (well color) (S. typhimurium pyrCΔ73): turned weakly purple
46 | O=C(O)CCCCCCCCC(=O)O [sebacic acid] | negative | positive | 
47 | O=C(O)[C@]1(O)C[C@@H](O)[C@@H](O)[C@H](O)C1 [quinic acid] | negative | positive | 
48 | O=C(O)[C@@H](O)[C@@H](O)[C@H](O)[C@@H](O)C(=O)O [D-saccharic acid] |  |  | carbon source utilization, in words [5]: negative; carbon source utilization, in words [6]: negative; carbon source utilization, in words [7]: negative; carbon source utilization, in words [8]: negative
49 | OC[C@H]1O[C@H](O)[C@H](O)[C@@H](O)[C@@H]1O [α-D-glucose] | positive | positive | 
50 | O=C[C@H](O)[C@@H](O)[C@H](O)CO [D-xylose] |  |  | carbon source utilization, in words [9]: positive; carbon source utilization, in words [10]: negative
51 | OC[C@H]1O[C@H](O[C@H]2[C@H](O)[C@@H](O)[C@H](O)O[C@@H]2CO)[C@H](O)[C@@H](O)[C@@H]1O [Maltose] | positive |  | carbon source utilization, in words [4]: negative; carbon source utilization, in words [10]: negative
52 | C[C@H](N)C(=O)NCC(=O)O [L-alanyl-glycine] (H-Ala-Gly-OH) | positive | positive | suitability as nitrogen source (growth, purple color) (E. coli MG1655 [2]): positive
53 | O=c1cc[nH]c(=O)[nH]1 [uracil] |  |  | growth stimulation by supplement (well color) (S. typhimurium pyrCΔ73): turned purple; suitability as nitrogen source (growth, purple color) (E. coli MG1655 [2]): not suitable
54 | gentiobiose | positive/negative | positive | 
